From patent US20150124259A1, “Method For Biodynamic Spectroscope Imaging” (Purdue Research Foundation, priority 2013, published 2015) come the findings set out here.

Each structure is given as a SMILES string.

Holding throughout (format): cell-based
The subject of one test is tumor spheroids (UMR106). Put plainly: Biodynamic spectroscopic imaging (BSI) of mitosis events in tumor spheroids, single-band thresholding (Taxol treatment). An excerpt: The mitosis phase has its own fingerprint because mitosis is one of the most dramatic events in a cell's life. However compared to the dynamic speckle from an entire tumor spheroid, the signal of the mitosis of a single cell is very weak. The statistical TDS technique is not able to show the mitosis events of single cells. On the other hand, BSI may be applied to generate a voxel based microspectrograms. In the current TDS system, the transverse and longitudinal resolution are 9 μm and 18 μm, and the typical size of UMR106 cell in tumor spheroid is about 10 um. Therefore, on the reconstructed image, each pixel contains about 4 cells. However the spectrum of a single pixel is too noisy to perform analysis, so 2×2 pixels can be preferably used as the balance point to calculate the spectra of the voxels. Thus, according to one aspect of the BSI method disclosed herein, the 3D image is reconstructed as voxels, rather than pixels, in which a voxel includes 2×2 pixels. The microspectrograms are then generated for each voxel, rather than pixel, which substantially eliminates the effect of noise in the image.
Therefore, for a single voxel, the normalized spectra from five datasets (20 mins) can be averaged together, with no risk of “missing” a biological event of the cell. By combining these normalized spectra together, the micro (voxel) spectrograms are generated. The baseline is the averaged spectrum over the entire tissue when it is only surrounded by growth medium. During the entire experimental period, each voxel corresponds to one spectrogram. A frequency vs. time fluctuation spectral response image of the tumor spheroid is constructed.
The frequency range is picked at a mid-high frequency band (0.52 Hz to 1 Hz, marked as a box in FIG. 7) and enhancement is picked as the finger print of the mitosis. The enhancement in this frequency range indicates both cell membrane undulation and cell organelle motion during mitosis. […] The prior approach discussed above referred to single-band thresholding that used the third case baseline described above as essentially a pixel-based TDS. This pixel-based TDS approach fails to isolate mitosis from other biological processes and to isolate mitosis from noise. Therefore, single-band thresholding only correctly acquires mitosis information when using the first or second case baselines described above.
Paclitaxel is a mitotic inhibitor used as an anti-cancer drug. It can stabilize microtubules so that cell division during mitosis can be interrupted. Experiments were performed using 2 concentrations of Paclitaxel: 1 μg/ml and 10 μg/ml. The tumor spheroids in these experiments were 430 μm diameter (1 μg/ml) and 410 μm diameter (10 μg/ml). The baselines were taken as described above. After 40 minutes, the original growth medium was replaced by medium with Paclitaxel. The data was collected for six hours, and the resulting macrospectrograms of the experiments are shown in FIG. 9b for 1 μg/ml and FIG. 9c for 10 μg/ml.
The thresholding used in this example is based on the single-band method using the first case baseline described above that averages the baseline over all pixels for all times. […] Each light speckle in each image represents a mitosis event. […] The mitosis events depicted in the BSI images of FIG. 10 are quantified in the graph of FIG. 11. The y-axis of the graph is the density of the voxels which are in the mitosis phase expressed as a fraction of the mitotic voxels to the total number of voxels for the underlying image. […]

The subject of the next test is DLD-1 tumor spheroid. Kind of test: BSI imaging of tumor heterogeneity of drug response in DLD-1 tumor spheroid. An excerpt:
In a previous co-pending application Ser. No. 13/760,827, entitled “System and Method for Determining Modified States of Health of Living Tissue”, filed on Feb. 6, 2013, and published as Pub. No. 2013/0144151 (the '151 application), the entire disclosure of which is incorporated herein by reference, a method is described that uses time-frequency masks to extract feature vectors. Multiple masks are used to create feature vectors that are then used to classify a drug response. In accordance with the present disclosure, the BSI techniques described herein can use the same or similar time-frequency masks to capture different mechanisms related to the drug action, and then perform the analysis on a per-pixel basis to generate “hyperspectral” maps of the tumor response to drugs. Because the signal-to-noise of single-pixel power spectra for biodynamic spectroscopic imaging (BSI) is not as large as for tissue dynamics spectroscopy (TDS) that averages over many pixels, it is necessary to modify the time-frequency mask from that described in the '151 application. The time-frequency spectral power density is given by S(ω,T). This power spectrum typically has a power-law decay at higher frequencies, with several orders of magnitude in vertical dynamic range. […]

The subject of test [1] is ex vivo biopsy sample of canine multicentric B-cell lymphoma. Put plainly: BSI of drug response of ex vivo biopsy sample. Conditions: two-color pixel map. An excerpt: An additional example of BSI is shown in FIG. 18 for an ex vivo biopsy sample of canine multicentric B-cell lymphoma. […] This signature is coded in green in the BSI image. The other spectral signature had low-frequency enhancement and high-frequency suppression, which is coded as red in the BSI image. […] This ex vivo biopsy is responding to the anticancer drug doxorubicin.

`CC(=O)O[C@H]1C(=O)[C@@]2(C)[C@H]([C@H](OC(=O)c3ccccc3)[C@]3(O)C[C@H](OC(=O)[C@H](O)[C@@H](NC(=O)c4ccccc4)c4ccccc4)C(C)=C1C3(C)C)[C@]1(OC(C)=O)CO[C@@H]1C[C@@H]2O` [Paclitaxel]: the “mitotic events, fraction of mitotic voxels to total voxels over time (FIG. 11)” value in the test on tumor spheroids (UMR106) (1 μg/ml, 430 μm diameter spheroid, compared with negative controls) was “fewer mitotic events and decayed faster”; with tumor spheroids (UMR106) (410 μm diameter spheroid) it was “decayed the fastest”. In addition, the “mitosis remaining after drug application (FIG. 11)” value in the test with tumor spheroids (UMR106) (1 μg/ml, six hours after applying) is on record as “still slight mitosis”; with tumor spheroids (UMR106) (two hours after applying the drug), “almost no mitosis at all”. Besides, the “mitosis activity inside the tumor spheroids (BSI images, FIG. 10)” value in the test with tumor spheroids (UMR106) (Taxol treated vs untreated, single-band threshold 0.52-1.0 Hz, nearly six hours) is reported as “significantly reduced”.
Regarding `CNC(=O)c1cc(Oc2ccc(NC(=O)Nc3ccc(Cl)c(C(F)(F)F)c3)cc2)ccn1` [Sorafenib], the “homogeneity of the response across the specimen (FIGS. 16c, 17)” value in the test with DLD-1 tumor spheroid (BSI image and classification map) is “majority of the specimen is unaffected or only slightly affected”. Moreover, the “BSI spectral response to drug, spatial distribution (FIG. 16c)” value with DLD-1 tumor spheroid (spheroid approximately 600 microns in diameter, periphery vs interior) is “highest magnitude in the proliferating shell, with low (dark) response internal to the tumor”.
For `COc1cccc2c1C(=O)c1c(O)c3c(c(O)c1C2=O)C[C@@](O)(C(=O)CO)C[C@@H]3O[C@H]1C[C@H](N)[C@H](O)[C@H](C)O1` [doxorubicin], the “BSI spectral responses of tissue to drug (FIG. 18)” value in test [1] is “two very different spectral responses”.
